Assay results: patent US6479251B1, “Colorimetric test for agents that induce mitochondrial dysfunction” (priority 1999, dated 2002)

Columns and labels:
Format in all cases: cell-based
[1] = test system: mitDNA of S. cerevisiae white colonies
Experimental: FIGS. 3A-3D show mitochondrial genome changes induced by adriamycin. Various white S. cerevisiae colonies produced after treatment with adriamycin were grown to log phase and stained with DAPI, which stains DNA. FIG. 3A: wild type; FIG. 3B: a Rho^0 strain (devoid of mitochondrial genome); FIG. 3C: a representative white cell lacking mitochondrial genome; and FIG. 3D: a representative cell containing mutant mitochondrial DNA.
White S. cerevisiae colonies produced after treatment with physical or chemical agents were grown to log phase and stained with DAPI. FIG. 6A: Wild type; FIG. 6B: A Rho^0 strain; FIG. 6C: adriamycin; FIG. 6D: hydrogen peroxide; FIG. 6E: UV; FIG. 6F: Methylmethane sulfonate. For FIGS. 6C-F, the cells on the right contains mutant mitDNA and the cell on the left lacks a mitochondrial genome.
DNA was stained with a fluorescent dye, 4,6-diamidino-2-phenylindole (DAPI)(2). […] In this study, a known yeast strain lacking mitDNA (Rho^0) served as a negative control (FIG. 3B, only nuclear DNA is stained).

[2] = test system: S. cerevisiae strain YPH499; assay: Colorimetric test: red to white colony colour change on YPD agar after treatment
Experimental: (§1) FIGS. 1A and 1B show visual color identification of mitochondrial dysfunction. The wild type S. cerevisiae YPH499 was gown in YPD (1% yeast extract, 2% bactopeptone and 2% dextrose) to log phase at 30° C. The log phase culture was centrifuged, resuspended in water containing adriamycin (150 μg/ml) for one hour. Appropriate dilutions of the culture were plated on YPD agar and incubated at 30° C. for 3-4 days. […] FIG. 1B: white colonies from treated cells in FIG. 1A wee replicated on to agar medium containing 2% dextrose (left) and 2% glycerol (right).
The wild type S. cerevisiae YPH499 was grown in YPD to log phase at 30° C. The culture was centrifuged, resuspended in water containing various concentrations of adriamycin as indicated for one hour. Appropriate dilutions of the culture were plated on YPD agar and incubated at 30° C. Colonies were counted after 3-4 days. Values presented are the average of four determinants.
FIGS. 5A, 5B, and 5C show the percentage of white colonies produced after treatment with physical or chemical agents. Exponentially growing cells were treated with various doses of UV (FIG. 5A) or various lengths of time (MMS (FIG. 5B) and H2O2 (FIG. 5C)). For UV treatment appropriate dilutions of culture were plated on YPD agar and exposed to UV using STRATALINKER (Stratagene). For MMS and H2O2 treatments, cells were exposed in liquid YPD medium.
(§2) The yeast S. cerevisiae strain YPH499 (a ura3-52, lys2-801, ade2-101, trpl-63, his3-200, leul-1) was grown in YPD to log phase. Cell were then harvested and suspended in water containing various concentration of adriamycin for one hour. In order to test whether white colonies were defective in mitochondrial function, we transferred the colonies to an agar media containing glycerol (nonfermentable carbon source). Utilization of glycerol by an eukaryotic cell requires intact mitochondrial function (2). […] The number of surviving colonies that were white reached about 30% at 150 μglml concentration.

[3] = test system: S. cerevisiae diploid cells (white colonies x Rho0); assay: Mating of haploid white colonies with Rho0 strain YPH 500, growth of diploids on glycerol medium; details: a total of 143 diploid cells from white colonies after adriamycin treatment mated with Rho0 (FIG. 4)
Experimental: FIGS. 4A and 4B show growth comparison of haploid and diploid S. cerevisiae cells. FIG. 4A: Various white colonies produced after treatment with adriamycin were streaked on YP glycerol plates. FIG. 4B: The same white colonies were mated with an opposite mating type strain of yeast lacking mitochondrial DNA on YPD plates. The diploid yeast strains were tested for growth on YP glycerol medium.
The genetic approach employed involved mating haploid white colonies generated after adriamycin treatment (shown in FIG. 2, “a” mating type) with a haploid Rho^0 strain (of opposite mating type “α” YPH 500 (ura3-52, lys2-801, ade2-101, trpl-63, his3-200, leu2-1) lacking mitDNA (3). The diploid cells (a total of 143) were tested for growth on glycerol medium. If the white cells contained a mutation in a nuclear gene affecting the mitochondrial function, it can be expected that diploid cells will grow on glycerol because a nuclear defect can be complemented with Rho^0 (because it contains intact nuclear DNA but lacks mitDNA). […] Together, these studies indicate that adriamycin preferentially damages mitDNA. This preferential damage by adriamycin can result either in complete loss of mitDNA (due to severe damage) and/or mutations in mitDNA (due to minor damage FIG. 3).

[4] = test system: S. cerevisiae strain YPH499; assay: Growth of white colonies on glycerol (nonfermentable carbon source) agar
Experimental: as §1, §2

SMILES | DAPI DNA staining of white colonies (mitDNA present or lost) ([1]; white colonies obtained after adriamycin treatment (FIG. 3)) | number of surviving colonies that were white ([2]; adriamycin 150 μglml in water for one hour, plated on YPD agar, 30° C., 3-4 days) | white colonies versus dose ([2]; various concentrations of adriamycin in water for one hour (FIG. 2)) | growth of diploid cells on glycerol medium [3] | growth of randomly chosen white colonies on glycerol plates ([4]; white colonies obtained after adriamycin treatment (FIG. 1B)) | increase in white colonies [2] | microscopic and genetic tests of white colonies (mitDNA status) ([1]; white colonies obtained after treatment with physical or chemical agents (FIG. 6)) | growth of white colonies on glycerol [4]
COc1cccc2c1C(=O)c1c(O)c3c(c(O)c1C2=O)C[C@@](O)(C(=O)CO)C[C@@H]3O[C@H]1C[C@H](N)[C@H](O)[C@H](C)O1 [adriamycin] | two types of DNA staining | about 30% | increase number of white colonies with increasing dose | none grew on glycerol medium | none were able to grow | – | – | –
OO [H2O2, hydrogen peroxide] | – | – | – | – | – | did not result in increased white colonies | – | –
COS(C)(=O)=O [MMS, methyl methane sulphonate] | – | – | – | – | – | did | either contained mutant mitDNA or lacked mitDNA at all | do not grow on glycerol
